Assay results as given in the NIST ThermoML archive (doi:10.1016/j.jct.2013.09.024).
Numbers after ± are expanded uncertainties.

Experiment: xn = mol fraction of the nth substance listed
Settings: Liquid, Vibrating tube method

CC1(C)C(=O)[C@]2(C)CC[C@H]1C2 [(-)-fenchone] + CCO
mass density [kg/m3]
Settings	101 kPa	20000 kPa	25000 kPa	30000 kPa	35000 kPa	40000 kPa
313.15 K, x1 = 0.0481	791.46 ± 0.15	–	–	–	–	–
313.15 K, x1 = 0.051	–	810.1 ± 1	814 ± 1	817.7 ± 1	821.3 ± 1.1	824.8 ± 1.1
313.15 K, x1 = 0.0985	808.84 ± 0.14	–	–	–	–	–
313.15 K, x1 = 0.0992	–	826.1 ± 1	829.9 ± 1	833.6 ± 1	837.1 ± 1	840.5 ± 1.1
313.15 K, x1 = 0.199	–	852.8 ± 1	856.5 ± 1	860 ± 1	863.5 ± 1	866.8 ± 1
313.15 K, x1 = 0.2002	836.65 ± 0.13	–	–	–	–	–
313.15 K, x1 = 0.3002	857.52 ± 0.12	–	–	–	–	–
313.15 K, x1 = 0.301	–	873.6 ± 1	877.2 ± 1	880.6 ± 1	883.9 ± 1	887.1 ± 1
313.15 K, x1 = 0.3968	–	889.1 ± 1	892.6 ± 1	895.9 ± 1	899.2 ± 1	902.4 ± 1
313.15 K, x1 = 0.4031	874.42 ± 0.12	–	–	–	–	–
313.15 K, x1 = 0.4976	–	902.4 ± 1	905.9 ± 1	909.2 ± 1	912.4 ± 1	915.5 ± 1
313.15 K, x1 = 0.5012	887.46 ± 0.12	–	–	–	–	–
313.15 K, x1 = 0.5924	–	912.6 ± 1	916 ± 1	919.2 ± 1	922.5 ± 1	925.5 ± 1
313.15 K, x1 = 0.5976	898.09 ± 0.12	–	–	–	–	–
313.15 K, x1 = 0.6956	–	922 ± 1	925.3 ± 1	928.5 ± 1	931.7 ± 1	934.7 ± 1
313.15 K, x1 = 0.697	907.3 ± 0.12	–	–	–	–	–
313.15 K, x1 = 0.7897	914.58 ± 0.12	–	–	–	–	–
313.15 K, x1 = 0.7942	–	929.7 ± 1	933 ± 1	936.1 ± 1	939.3 ± 1	942.3 ± 1
313.15 K, x1 = 0.8929	–	936.3 ± 1	939.6 ± 1	942.7 ± 1	945.8 ± 1	948.8 ± 1
313.15 K, x1 = 0.899	922.06 ± 0.12	–	–	–	–	–
313.15 K, x1 = 0.9454	–	939.4 ± 1	942.7 ± 1	945.8 ± 1	948.9 ± 1	951.9 ± 1
313.15 K, x1 = 0.9486	925.06 ± 0.12	–	–	–	–	–
313.15 K, x1 = 1	928.04 ± 0.12	942.3 ± 1	945.6 ± 1	948.7 ± 1	951.8 ± 1	954.7 ± 1
328.15 K, x1 = 0.0481	777.95 ± 0.16	–	–	–	–	–
328.15 K, x1 = 0.051	–	798 ± 1	802.1 ± 1	806.1 ± 1.1	810 ± 1.1	813.7 ± 1.1
328.15 K, x1 = 0.0985	795.29 ± 0.14	–	–	–	–	–
328.15 K, x1 = 0.0992	–	813.9 ± 1	818 ± 1	821.9 ± 1	825.7 ± 1.1	829.3 ± 1.1
328.15 K, x1 = 0.199	–	840.6 ± 1	844.6 ± 1	848.3 ± 1	852 ± 1	855.5 ± 1
328.15 K, x1 = 0.2002	823.07 ± 0.14	–	–	–	–	–
328.15 K, x1 = 0.3002	844.02 ± 0.13	–	–	–	–	–
328.15 K, x1 = 0.301	–	861.4 ± 1	865.3 ± 1	869 ± 1	872.5 ± 1	876 ± 1
328.15 K, x1 = 0.3968	–	876.8 ± 1	880.6 ± 1	884.2 ± 1	887.7 ± 1	891.1 ± 1
328.15 K, x1 = 0.4031	861.01 ± 0.12	–	–	–	–	–
328.15 K, x1 = 0.4976	–	890.1 ± 1	893.7 ± 1	897.3 ± 1	900.8 ± 1	904.2 ± 1
328.15 K, x1 = 0.5012	874.13 ± 0.12	–	–	–	–	–
328.15 K, x1 = 0.5924	–	900.5 ± 1	904.1 ± 1	907.7 ± 1	911.1 ± 1	914.4 ± 1
328.15 K, x1 = 0.5976	884.87 ± 0.12	–	–	–	–	–
328.15 K, x1 = 0.6956	–	910.1 ± 1	913.7 ± 1	917.2 ± 1	920.6 ± 1	923.8 ± 1
328.15 K, x1 = 0.697	894.19 ± 0.12	–	–	–	–	–
328.15 K, x1 = 0.7897	901.6 ± 0.12	–	–	–	–	–
328.15 K, x1 = 0.7942	–	917.8 ± 1	921.3 ± 1	924.8 ± 1	928.1 ± 1	931.4 ± 1
328.15 K, x1 = 0.8929	–	924.4 ± 1	927.9 ± 1	931.4 ± 1	934.7 ± 1	937.8 ± 1
328.15 K, x1 = 0.899	909.23 ± 0.12	–	–	–	–	–
328.15 K, x1 = 0.9454	–	927.7 ± 1	931.2 ± 1	934.5 ± 1	937.8 ± 1	941 ± 1
328.15 K, x1 = 0.9486	912.33 ± 0.13	–	–	–	–	–
328.15 K, x1 = 1	915.39 ± 0.13	930.8 ± 1	934.2 ± 1	937.6 ± 1	940.9 ± 1	944 ± 1
